ChEMBL document CHEMBL1126010, “Conformationally restrained analogues of pravadoline: nanomolar potent, enantioselective, (aminoalkyl)indole agonists of the cannabinoid receptor” (J Med Chem, 1992)

What was measured:
Mus musculus [1] = species: Mus musculus; assay: Inhibitory activity against PG synthesis was measured in mouse brain microsomes.; assay type: functional
Mus musculus [2] = species: Mus musculus; assay: In vitro inhibition of electrically stimulated contractions of isolated mouse vas deferens.; assay type: functional
Cannabinoid receptor = Cannabinoid receptor (Rattus norvegicus, UniProt Q9QZN9+P20272); assay: Concentration required to displace 50% of 0.5 nM [3H](aminoalkyl)indole binding to cannabinoid receptor in rat cerebellum membranes; assay type: cell membranes, Membrane
Mus musculus [3] = assay: In vivo antinociceptive effect was tested in the mouse acetylcholine writhing assay after 100 mg/kg po administration; assay type: functional
Mus musculus [4] = species: Mus musculus; assay: Inhibitory activity against PG synthesis was measured in mouse brain microsomes at 30 uM; assay type: functional
[5] = target: Cannabinoid receptor (Rattus norvegicus) (UniProt Q9QZN9+P20272); conditions: Cerebellum; Membrane; at 1 µM
Description: Inhibition of 0.5 nM [3H](Aminoalkyl)indole binding to cannabinoid receptor in rat cerebellum membranes at 1 uM

Mus musculus [6] = assay: In vivo antinociceptive effect was tested in the mouse acetylcholine writhing assay after po administration; assay type: functional
Mus musculus [7] = species: Mus musculus; assay: In vitro inhibition of electrically stimulatedcontradions was measured on isolated mouse vas deferens at 10 uM; assay type: functional
Mus musculus [8] = assay: (§1) in vivo antinociceptive effect was tested in the mouse acetylcholine writhing assay after iv administration; assay type: functional
Mus musculus [9] = assay: In Vivo antinociceptive effect was tested in the mouse acetylcholine writhing assay after 100 mg/kg po administration; assay type: functional
Mus musculus [10] = assay: as §1; assay type: functional, organism-based

Cannabinoid receptor (Rattus norvegicus), sequence (P20272 whole entry, looked up): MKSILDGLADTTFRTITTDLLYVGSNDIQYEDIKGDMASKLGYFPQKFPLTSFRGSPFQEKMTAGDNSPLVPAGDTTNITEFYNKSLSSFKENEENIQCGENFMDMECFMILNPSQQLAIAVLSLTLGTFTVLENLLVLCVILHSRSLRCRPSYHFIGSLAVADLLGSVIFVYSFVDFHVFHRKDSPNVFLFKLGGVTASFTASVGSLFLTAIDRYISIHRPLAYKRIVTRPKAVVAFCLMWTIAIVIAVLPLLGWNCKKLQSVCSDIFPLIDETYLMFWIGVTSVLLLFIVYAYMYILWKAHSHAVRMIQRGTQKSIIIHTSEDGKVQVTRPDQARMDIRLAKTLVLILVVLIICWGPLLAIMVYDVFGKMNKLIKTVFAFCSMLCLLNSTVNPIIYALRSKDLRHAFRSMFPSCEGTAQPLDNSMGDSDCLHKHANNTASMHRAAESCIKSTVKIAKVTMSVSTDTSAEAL
Cannabinoid receptor (Rattus norvegicus), sequence (Q9QZN9 whole entry, looked up): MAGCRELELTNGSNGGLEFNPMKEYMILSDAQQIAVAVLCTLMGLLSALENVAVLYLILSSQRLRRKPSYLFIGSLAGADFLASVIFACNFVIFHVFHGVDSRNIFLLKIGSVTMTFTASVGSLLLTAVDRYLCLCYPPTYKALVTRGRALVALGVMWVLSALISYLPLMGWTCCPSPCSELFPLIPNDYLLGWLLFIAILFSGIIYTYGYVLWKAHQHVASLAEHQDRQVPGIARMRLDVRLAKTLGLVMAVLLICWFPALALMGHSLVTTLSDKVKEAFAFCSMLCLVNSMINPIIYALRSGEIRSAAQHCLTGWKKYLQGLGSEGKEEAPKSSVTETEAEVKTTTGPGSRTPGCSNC

SMILES | IC50 (Mus musculus [1]) | IC50 (Mus musculus [2]; Mus musculus) | IC50 (Cannabinoid receptor) | further results
COc1ccc2c(c1)c(CC(=O)O)c(C)n2C(=O)c1ccc(Cl)cc1 [INDOMETHACIN] | 500 nM | > 10000 nM |  | 
Cc1c(C(=O)c2ccccc2F)c2cccc3c2n1C(CN1CCOCC1)CO3 (centres undefined) | 42000 nM | 76 nM | 1426 nM | 
COc1ccc(C(=O)c2c(C)n3c4c(cccc24)CC(N2CCOCC2)C3)cc1 (centres undefined) |  | > 10000 nM |  | inhibition in vivo at 100 mg/kg (Mus musculus [3]): 30%; inhibition (Mus musculus [4]): 12%; inhibition [5]: 1.4%
COc1ccc(C(=O)c2c(C)n3c4c(cccc24)OC[C@@H]3CN2CCOCC2)cc1 | 30000 nM | > 10000 nM | 17500 nM | 
Cc1c(C(=O)c2cccc3ccccc23)c2cccc3c2n1[C@H](CN1CCOCC1)CO3 (stereo in doubt; 21) [WIN-552122] |  |  |  | IC50 (Mus musculus [2]): 6 nM
COc1ccc(C(=O)c2c3n(c4ccccc24)CCC3N2CCOCC2)cc1 (centres undefined) |  | > 10000 nM |  | ED50 (Mus musculus [6]): 91 mg/kg; inhibition (Mus musculus [4]): 49%
Cc1c(C(=O)c2cccc3c(Br)cc(Br)cc23)c2cccc3c2n1[C@H](CN1CCOCC1)CO3 |  |  | 48.3 nM | 
CCc1c(C(=O)c2ccc(OC)cc2)c2cccc3c2n1C(CN1CCOCC1)CO3 (centres undefined) |  |  |  | inhibition at 10 µM (Mus musculus [7]): 28%; inhibition [5]: 27%
COc1ccc(C(=O)c2c(C)n(CCN3CCOCC3)c3ccccc23)cc1 [PRAVADOLINE] | 5000 nM | 453 nM | 3155 nM | ED50 (Mus musculus [6]): 26 mg/kg; ED50 (Mus musculus [8]): 4 mg/kg
Cc1c(C(=O)c2ccc(Br)c3ccccc23)c2cccc3c2n1C(CN1CCOCC1)CO3 (centres undefined) |  | 2.2 nM | 2.32 nM | 
COc1ccc(C(=O)c2cn3c4c(cccc24)OCC3CN2CCOCC2)cc1 (centres undefined) |  | 45.5 nM | 249 nM | ED50 (Mus musculus [6]): 2 mg/kg; inhibition [5]: -9%
COc1ccc(C(=O)c2c(C)n3c4c(cccc24)OCC3CN2CCOCC2)cc1 (centres undefined) | 72000 nM | 123 nM | 152 nM | inhibition in vivo at 100 mg/kg (Mus musculus [9]): 30%; IC50 (Mus musculus [10]): 4000 nM
O=C(c1cccc2ccccc12)c1cn2c3c(cccc13)OCC2CN1CCOCC1 (centres undefined) |  | 2 nM | 7.37 nM | 
COc1ccc(C(=O)c2c3n(c4ccccc24)CC(N2CCOCC2)C3)cc1 (centres undefined) |  | > 10000 nM |  | inhibition (Mus musculus [4]): 18%
COc1ccc(C(=O)c2c3n(c4ccccc24)C(CN2CCOCC2)CC3)cc1 (centres undefined) |  | 320 nM | 3053 nM | 
COc1ccc(C(=O)c2c(C)n3c4c(cccc24)OC[C@H]3CN2CCOCC2)cc1 | 50000 nM | 44 nM | 106 nM | 
Cc1c(C(=O)c2ccc3ncccc3c2)c2cccc3c2n1C(CN1CCOCC1)CO3 (centres undefined) | 26000 nM | 21 nM | 132.5 nM | 
C[C@H](CCCc1ccccc1)Oc1cc(O)c2c(c1)N[C@@H](C)[C@@H]1CC[C@@H](O)C[C@@H]21 |  | 2.3 nM | 0.46 nM | 
Cc1c(C(=O)c2cccc3ccccc23)c2cccc3c2n1[C@@H](CN1CCOCC1)CO3 | 10000 nM | > 10000 nM |  | inhibition in vivo at 100 mg/kg (Mus musculus [9]): 10%
Cc1c(C(=O)c2cccc3ccccc23)c2cccc3c2n1[C@H](CN1CCOCC1)CO3 (stereo in doubt) [WIN-552122] | 9000 nM |  |  | IC50 (Mus musculus [2]): 0.43 nM
